# Laboratory results: patent EP1279727A1, “TRANSFORMATION AND MODIFICATION OF NATURAL DRUG BY INTESTINAL PROBIOTIC FERMENTATIVE CULTURE” (Wu, Bingxin, priority 2000, dated 2002)
# Where two headings read alike, the source gives them in different places.
# Tests used:
# H22 hepatocarcinoma [1] = format: in vivo; conditions: H22 mouse, single therapy (subgroup 2 preparation alone; subgroup 3 5-Fu 15 mg/kg alone), 7 days
# Description: 1. […] The resultant model mouse is grouped randomly into eight groups.
# Each mouse in first four groups is treated for observing effect of the present natural medicine preparation on the efficiency of anti-cancer chemical agent, fliorouracil (5-Fu, 15 mg/kg), mice in the rest four groups is for the effect of the present compositions on the efficiency of radiotherapy for cancer (^60Co irradiation on whole body, 4.5 Gray /day/animal).
# The combination therapy to both animal groups (4 subgroups in each group) starts from the next day of grafting tumor cells and continues for 7 days.
# The synergetic effect of the present composition on chemical therapy or radiotherapy for cancer is calculated by the inhibition rate according to the following Burgi's correction equation: Q= E (A+B)/EA+EB-EAxEB [formula] wherein, E (A+B) is the cancer inhibition rate of the combined therapy, EA and EB are the cancer inhibition rate of the present composition administration, or the chemical therapy (or radiotherapy) alone.
# Result: (1) If Q calculated is lower than 0.85, it is considered as an antergenic effect between combined therapy; (2) if Q is between 0.85 and 1.15, it is considered as an addictive effect; and (3) if Q is above 1.15, then it is deemed as synergetic effect between combined therapy. The particular results are listed in table 3 and table 4, respectively.
# S180 sacoma = conditions: S180 mouse, positive control CTX subcutaneously
# Description: (§1) Using species Kunming mouse subcutaneously grafted S180 sacoma or H22 hepatocarcinoma as cancer-harboring model animal, the inhibition activity on growth of cancer is observed with respect to extract of anti-cancer natural medicines which converted or unconverted by the above intestinal probiotics in either large dose or small dose.
# (§2) For this purpose, 120 mice weighed from about 18-25g are grafted subcutaneously at right axilla with 1 x 10^7 cells/ml of S180 sacoma or H22 hepatocarcinoma (0.2ml/mouse) in order to obtain solid tumor model animal. The resultant model animal is grouped randomly into 12 groups. Each animal in treatment group is orally administrated with unfermented (in 1:1 dilution) or fermented (in 1:4 dilution) extract of natural medicines daily.
# (§3) The administration of extract of natural medicine starts at the forth day from the date grafting cancer cells, i.e., the time when solid tumor can be touched by hand. After continuously administration over 10 days, the weight of animal and solid tumor are measured, respectively, and then inhibition rate of cancer can be calculated accordingly. The treatment experiments on the two types of cancer are carried out in triplicate.
# H22 hepatocarcinoma [2] = conditions: H22 mouse, positive control CTX subcutaneously
# Description: as §1, §2, §3
smiles,measurement,setting,value
"O=c1[nH]cc(F)c(=O)[nH]1 [5-Fu, fliorouracil]",inhibition rate,H22 hepatocarcinoma [1],56.7%
same,tumor weight (X±SD),H22 hepatocarcinoma [1],1.06±0.31
"O=P1(N(CCCl)CCCl)NCCCO1 (stereo not shown) [positive control, cyclophosphamide]",animal weight before ad.,S180 sacoma,20.1
same,animal weight after ad.,S180 sacoma; after 10 days,21.2
same,inhibition rate,S180 sacoma; after 10 days,61.0%
same,solid tumor weight (X±SD),S180 sacoma; after 10 days,0.55±0.19
same,animal weight before ad.,H22 hepatocarcinoma [2],21.2
same,animal weight after ad.,H22 hepatocarcinoma [2]; after 10 days,27.9
same,inhibition rate,H22 hepatocarcinoma [2]; after 10 days,62.4%
same,solid tumor weight (X±SD),H22 hepatocarcinoma [2]; after 10 days,0.72±0.36
